Data taken from publication PMC3724985, “Isolation, biochemical characterization, and cloning of a bacteriocin from the poultry-associated Staphylococcus aureus strain CH-91” (Applied Microbiology and Biotechnology, 2012).

System: StpC
Experiment: Residual proteolytic activity of culture media with E-64 (Hide Powder Azure)
Format: biochemical
Settings: E-64 at 0.01, 0.1 and 1.0 mM in S. aureus CH-91 culture (TSB, 37 °C), 0.1 M Tris–HCl pH 7.5, 5 mM cysteine, 5 mM EDTA
Procedure: S. aureus CH-91 was cultured at 37 °C in TSB supplemented with the cysteine peptidase inhibitor E-64 (1-[N-[(L-3-trans-carboxyoxirane-2-carbonyl)-L-leucyl] amino]-4-guanidinobutane; Sigma) at final concentrations of 1.0, 0.1, and 0.01 mM. Aliquots were removed at 5, 10, and 24 h, and the bacteria-free supernatants were obtained by centrifugation.
The residual proteolytic activity of collected culture media was determined at 37 °C using Hide Powder Azure (Calbiochem) in 0.1 M Tris–HCl (pH 7.5) supplemented with 5 mM cysteine and 5 mM EDTA.

CC(C)C[C@H](NC(=O)[C@H]1O[C@@H]1C(=O)O)C(=O)NCCCCNC(=N)N (relative stereo) [E-64, 1-[N-[(L-3-trans-carboxyoxirane-2-carbonyl)-L-leucyl]amino]-4-guanidinobutane]
residual proteolytic activity in culture media containing the inhibitor: No residual proteolytic activity was detected
